Values after ≈ are worked out from the molar mass of the structure shown. Active and inactive are the calls of the source.

The test system of experiment [1] is Staphylococcus aureus. Put plainly: Antimicrobial activity against Staphylococcus aureus. The format is functional.
Experiment [2] relates to Bacillus subtilis. Description: Antimicrobial activity against Bacillus subtilis. In kind it is functional.
Experiment [3] has as its system Bacillus anthracis. Put plainly: Antimicrobial activity against Bacillus anthracis. In kind it is functional.
The subject of experiment [4] is Micrococcus luteus. Description: Antimicrobial activity against Micrococcus luteus. The format is functional.
In experiment [5] the test system is Mycolicibacterium smegmatis. Put plainly: Antimicrobial activity against Mycobacterium smegmatis. In kind it is functional.
For experiment [6], the system named is Mycolicibacterium phlei. Description: Antimicrobial activity against Mycobacterium phlei. The format is functional.
In experiment [7] the test system is Bacillus cereus. Put plainly: Antimicrobial activity against Bacillus cereus. The format is functional.
In experiment [8] the test system is Staphylococcus aureus. Description: Antimicrobial activity against Staphylococcus aureus at 50 ug/ml. The format is functional, organism-based.
For experiment [9], the system named is Bacillus cereus. Description: Antimicrobial activity against Bacillus cereus at 50 ug/ml. The format is functional, organism-based.
Experiment [10] has as its system Bacillus subtilis. Put plainly: Antimicrobial activity against Bacillus subtilis at 50 ug/ml. The format is functional, organism-based.
Experiment [11] concerns Bacillus anthracis. Put plainly: Antimicrobial activity against Bacillus anthracis at 50 ug/ml. The format is functional, organism-based.
Experiment [12] concerns Micrococcus luteus. Description: Antimicrobial activity against Micrococcus luteus at 50 ug/ml. The format is functional, organism-based.
The subject of experiment [13] is Mycolicibacterium smegmatis. Put plainly: Antimicrobial activity against Mycobacterium smegmatis at 50 ug/ml. The format is functional, organism-based.
In experiment [14] the test system is Mycolicibacterium phlei. Description: Antimicrobial activity against Mycobacterium phlei at 50 ug/ml. The format is functional, organism-based.

Take `CC[C@H]1OC(=O)[C@H](C)[C@@H](O[C@H]2C[C@@](C)(OC)[C@@H](O)[C@H](C)O2)[C@H](C)[C@@H](O[C@@H]2O[C@H](C)C[C@H](N(C)C)[C@H]2O)[C@](C)(OC)C[C@@H](C)C(=O)[C@H](C)[C@@H](O)[C@]1(C)O` [CLARITHROMYCIN]: the minimum inhibitory concentration (MIC) (commonly the smallest concentration in the dilution series that meets the test's criterion for growth inhibition) stood at 0.8 µg/mL (≈ 1.07 µM) against Staphylococcus aureus [1]; 1.7 µg/mL (≈ 2.27 µM) against Bacillus subtilis [2]; 1.3 µg/mL (≈ 1.74 µM) with Bacillus anthracis [3]; 2 µg/mL (≈ 2.67 µM) with Micrococcus luteus [4]; 0.5 µg/mL (≈ 0.668 µM) in [5]; 0.5 µg/mL (≈ 0.668 µM) in the experiment with Mycolicibacterium phlei [6].
On to `C=C[C@@]1(C)CC[C@@H]2[C@@]3(C)CCCC(C)(C)[C@@H]3[C@@H](OC(=O)CC(=O)O)C[C@@]2(C)O1`, for which the minimal inhibitory concentration (MIC) was 15 µg/mL (≈ 38.2 µM) against Staphylococcus aureus [1]; 15 µg/mL (≈ 38.2 µM) against Bacillus cereus [7]; 15 µg/mL (≈ 38.2 µM) in the experiment with Bacillus subtilis [2]; 20 µg/mL (≈ 51 µM) against Bacillus anthracis [3]; 17 µg/mL (≈ 43.3 µM) with Micrococcus luteus [4]; 7 µg/mL (≈ 17.8 µM) in [5]. Further, the lowest concentration to inhibit growth against Mycolicibacterium phlei [6] (MIC) was 9 µg/mL (≈ 22.9 µM).
`C=C[C@@]1(C)CC[C@@H]2[C@@]3(C)CCCC(C)(C)[C@@H]3[C@@H](OC(=O)CC(=O)OCCCC)C[C@@]2(C)O1`: the result (with Staphylococcus aureus [8]; with Bacillus cereus [9]; in the experiment with Bacillus subtilis [10]; in the experiment with Bacillus anthracis [11]; in the experiment on Micrococcus luteus [12]; in experiment [13]) was inactive. Besides, the outcome in the experiment on Mycolicibacterium phlei [14] was inactive.
On to `C=C[C@@]1(C)CC[C@@H]2[C@@]3(C)CCCC(C)(C)[C@@H]3[C@@H](OC(C)=O)C[C@@]2(C)O1`, for which the outcome (in the experiment with Staphylococcus aureus [8]; in the experiment on Bacillus cereus [9]; with Bacillus subtilis [10]; in the experiment on Bacillus anthracis [11]; in the experiment on Micrococcus luteus [12]; in [13]) was inactive. Moreover, in the experiment with Mycolicibacterium phlei [14], the outcome was inactive.

These data come from ChEMBL document CHEMBL1155092, “Antibacterial activity of labdane diterpenoids from Stemodia foliosa” (2008).
